Laboratory results from ChEMBL document CHEMBL1122054, “Lysosomotropic agents. 4. Carbobenzoxyglycylphenylalanyl, a new protease-sensitive masking group for introduction into cells” (J Med Chem, 1982).
“And” between values parts separate entries of the source, which are not always exact repeats. Equal values may be shown once.

How the values were obtained:
[1] = Compound treated with MPM cell homogenate at pH 3.5 to isolate compound 4 (ng); format: ADME, cell-based
[2] = Compound in absence of MPM cell homogenate at pH 3 to isolate compound 4 (ng); format: ADME, cell-based
[3] = Compound treated with MPM cell homogenate at pH 6 to isolate compound 4 (ng); format: ADME, cell-based
Mus musculus [4] = species on record: Mus musculus; test: Toxicity was evaluated for the compound at a concentration of 0.331 mM against […] Mastocytoma.; format: functional
Mus musculus [5] = species on record: Mus musculus; test: Toxicity toward P-815 Mastocytoma cells after 5 hr was determined as percent of [51Cr]- release from labeled cells as a measure of cell death. at a concentration of 0.331 mM. (expt III); format: functional
MPM [6] = test: Compound along with 4 mM pepstatin in presence of MPM cells at pH 3 to isolate compound 4 (ng); format: cell-based
[7] = Compound treated with MPM cell homogenate at pH 4.5 to isolate compound 4 (ng); format: ADME, cell-based
MPM [8] = test: Compound in presence of MPM cells and in absence of inactivator at pH 8 to isolate compound 4 (ng); format: cell-based
MPM [9] = test: Compound along with 10 uM HgCl2 in presence of MPM cells at pH 3 to isolate compound 4 (ng); format: cell-based
MPM [10] = test: Compound in presence of MPM cells and in absence of inactivator at pH 3 to isolate compound 4 (ng); format: cell-based
[11] = Compound treated with MPM cell homogenate at pH 6.5 to isolate compound 4 (ng); format: ADME, cell-based
[12] = Compound treated with MPM cell homogenate at pH 4 to isolate compound 4 (ng); format: ADME, cell-based
[13] = Compound treated with MPM cell homogenate at pH 5.5 to isolate compound 4 (ng); format: ADME, cell-based
[14] = Compound treated with MPM cell homogenate at pH 8 to isolate compound 4 (ng); format: ADME, cell-based
Mus musculus [15] = species on record: Mus musculus; test: Cytotoxicity was determined for the compound against mouse peritoneal macrophages (MPM) at a concentration of 0.165 mM.; format: functional
Mus musculus [16] = species on record: Mus musculus; test: Cytotoxicity was determined against mouse peritoneal macrophages (MPM) and the percent of LDH released after 24 hr was determined as a measure of cell death at a concentration of 0.375 mM (expt II); format: functional
[17] = Compound treated with MPM cell homogenate at pH 3 to isolate compound 4 (ng); format: ADME, cell-based
[18] = Compound treated in absence of MPM cell homogenate at pH 4.5 to isolate compound 4 (ng); format: ADME, cell-based
[19] = Compound in absence of MPM cell homogenate at pH 4.5 to isolate compound 4 (ng); format: ADME, cell-based
MPM [20] = test: Compound (steam-treated 10 min) in presence of MPM cells at pH 3 to isolate compound 4 (ng); No data; format: cell-based
[21] = Compound treated with MPM cell homogenate at pH 5 to isolate compound 4 (ng); format: ADME, cell-based
[22] = Compound in absence of MPM cell homogenate at pH 7 to isolate compound 4 (ng); format: ADME, cell-based
[23] = Compound treated with MPM cell homogenate at pH 7 to isolate compound 4 (ng); format: ADME, cell-based
Mus musculus [24] = species on record: Mus musculus; test: Cytotoxicity was determined against mouse peritoneal macrophages (MPM) and the percent of LDH released after 24 hr was determined as a measure of cell death at a concentration of 0.375 mM (expt I); format: functional
MPM [25] = test: Compound along with 3 mM leupeptin in presence of MPM cells at pH 3 to isolate compound 4 (ng); format: cell-based
[26] = Compound treated with MPM cell homogenate at pH 7.5 to isolate compound 4 (ng); format: ADME, cell-based
MPM [27] = test: Compound in absence of MPM cells and in absence of inactivator at pH 8 to isolate compound 4 (ng); format: cell-based
Mus musculus [28] = species on record: Mus musculus; test: Appearance of mouse peritoneal macrophages after 3h of treatment with compound at a concentration of 0.375 mM; vacuoles, rounded; format: functional, organism-based
Mus musculus [29] = species on record: Mus musculus; test: Evaluated for the percent inhibition uptake of radiolabeled thymidine as a measure of inhibition of cell division against the SV40-transformed 3T3 cells after 4 hr at the concentration of 1x10E4M; format: functional, NIH3T3
Mus musculus [30] = species on record: Mus musculus; test: Evaluated for the percent inhibition uptake of radiolabeled thymidine as a measure of inhibition of cell division against the SV40-transformed 3T3 cells after 4 hr at the concentration of 6; format: functional, NIH3T3
Mus musculus [31] = species on record: Mus musculus; test: Evaluated for the percent inhibition uptake of radiolabeled thymidine as a measure of inhibition of cell division against the SV40-transformed 3T3 cells after 4 hr at the concentration of 3x10E4M; format: functional, NIH3T3
Mus musculus [32] = species on record: Mus musculus; test: Toxicity toward P-815 Mastocytoma cells after 5 hr was determined as percent of [51Cr]- release from labeled cells as a measure of cell death. at a concentration of 0.257 mM. (expt III); format: functional
Mus musculus [33] = species on record: Mus musculus; test: Toxicity was evaluated for the compound at a concentration of 0.257 mM against […] Mastocytoma.; format: functional

## CCCCCCCCCCCCN(CC(F)(F)F)C(=O)[C@@H](Cc1ccccc1)NC(=O)CNC(=O)OCc1ccccc1
[1]
  Activity: 79
[2]
  Activity: 30
[3]
  Activity: 54
Mus musculus [4]
  Toxicity: 200 µg/mL
Mus musculus [5]
  Cr release: 22%
MPM [6]
  Activity: 27
[7]
  Activity: 92 and 36
MPM [8]
  Activity: 24
MPM [9]
  Activity: 28
MPM [10]
  Activity: 53
[11]
  Activity: 28
[12]
  Activity: 49
[13]
  Activity: 22
[14]
  Activity: 104
Mus musculus [15]
  Toxicity: 100 µg/mL
Mus musculus [16]
  LDH release: 61%
[17]
  Activity: 92
[18]
  Activity: < 14
[19]
  Activity: 36
MPM [20]
  Activity: 0
[21]
  Activity: 30
[22]
  Activity: 20
[23]
  Activity: 34
Mus musculus [24]
  LDH release: 73%
MPM [25]
  Activity: 23
[26]
  Activity: 52
MPM [27]
  Activity: 13
Mus musculus [28]
  Activity: vacuoles, rounded

## CC(C)(C)OC(=O)NCC(=O)N[C@H](Cc1ccccc1)C(=O)N(CCCl)CCCl
Mus musculus [29]
  Inhibition uptake: -4%
Mus musculus [30]
  Inhibition uptake: 52%
Mus musculus [31]
  Inhibition uptake: 33%

## CCCCCCCCCCCCNC(=O)[C@H](Cc1ccccc1)NC(=O)CN
Mus musculus [32]
  Cr release: 93%
Mus musculus [33]
  Toxicity: 100 µg/mL
